Data as given in patent US8802597B2, “Herbicidal pyrimidines” (E I du Pont de Nemours and Company, priority 2003, dated 2014).

How the values were obtained:
Format in all cases: in vivo
[1] = tested on: dallisgrass (Paspalum dilatatum); experiment: Test F pre/postemergence
Source text: Seeds or nutlets of plant species selected from (turf) bermudagrass (Cynodon dactylon), Kentucky bluegrass (Poa pratensis), bentgrass (Agrostis palustris), hard fescue (Festuca ovina), large crabgrass (Digitaria sanguinalis), goosegrass (Eleusine indica), dallisgrass (Paspalum dilatatum), annual bluegrass (Poa annua), common chickweed (Stellaria media), dandelion (Taraxacum officinale), white clover (Trifolium repens), and yellow nutsedge (Cyperus esculentus) were planted and treated preemergence with the test chemical formulated in a non-phytotoxic solvent mixture which included a surfactant.
At the same time, plants selected from these crop and weed species were treated with postemergence applications of the test chemical formulated in the same manner. Plants ranged in height from 2 to 18 cm (1- to 4-leaf stage) for postemergence treatments. Treated plants and controls were maintained in a greenhouse for 12 to 14 days, after which time all species were compared to controls and visually evaluated. Plant response ratings, summarized in Table F, are based on a scale of 0 to 100 where 0 is no effect and 100 is complete control. A dash (-) response means no test result.

[2] = tested on: barnyardgrass (ECHCG; Echinochloa crus-galli (L.) Beauv.); experiment: Test H mixtures of compound 1 with diflufenzopyr; details: foliage spray
Source text: (§1) This test evaluated the effect of mixtures of compound 1 with diflufenzopyr on several plant species. Seeds of test plants consisting of large crabgrass (DIGSA, Digitaria sanguinalis (L.) Scop.), lambsquarters (CHEAL, Chenopodium album L.), redroot pigweed (AMARE, Amaranthus retroflexus L.), cocklebur (XANST, Xanthium strumarium L.), barnyardgrass (ECHCG; Echinochloa crus-galli (L.) Beauv.), corn (ZEAMD, Zea mays L. cv. ‘Pioneer 33G26’), scarlet (red) morningglory (IPOCO, Ipomoea coccinea L.), giant foxtail (SETFA, Setaria faberi Herrm.) and velvetleaf (ABUTH, Abutilon theophrasti Medik.) were planted in pots containing Redi-Earth® planting medium (Scotts Company, 14111 Scottslawn Road, Marysville, Ohio 43041) comprising spaghnum peat moss, vermiculite, wetting agent and starter nutrients. Seeds of small-seeded species were planted about 1 cm deep; larger seeds were planted about 2.5 cm deep. Plants were grown in a greenhouse using supplemental lighting to maintain a photoperiod of about 14 hours; daytime and nighttime temperatures were about 25-30° C. and 22-25° C., respectively. Balanced fertilizer was applied through the watering system. The plants were grown for 7 to 11 days so that at time of treatment the plants ranged in height from 2 to 18 cm (1- to 4-leaf stage). Treatments consisted of Compound 1 and diflufenzopyr alone and in combination, suspended or dissolved in an aqueous solvent comprising glycerin and Tween nonionic surfactant and applied as a foliage spray using a volume of 541 L/ha. Each treatment was replicated four times. […] Treated plants and controls were maintained in the greenhouse and watered as needed with care to not wet the foliage for the first 24 hours after treatment. The effects on the plants approximately 3 weeks after treatment were visually compared to untreated controls. Plant response ratings were calculated as the means of the four replicates, based on a scale of 0 to 100 where 0 is no effect and 100 is complete control. Colby's Equation was used to determine the herbicidal effects expected from the mixtures. Colby's Equation (Colby, S. R. “Calculating Synergistic and Antagonistic Responses of Herbicide Combinations,” Weeds, 15(1), pp 20-22 (1967)) calculates the expected additive effect of herbicidal mixtures, and for two active ingredients is of the form: Pa+b=Pa+Pb−(PaPb/100) wherein Pa+b is the percentage effect of the mixture expected from additive contribution of the individual components, • Pa is the observed percentage effect of the first active ingredient at the same use rate as in the mixture, and • Pb is the observed percentage effect of the second active ingredient at the same use rate as in the mixture.

[3] = tested on: cocklebur (XANST, Xanthium strumarium L.); experiment: Test H mixtures of compound 1 with diflufenzopyr; details: foliage spray
Source text: as §1

[4] = tested on: corn (ZEAMD, Zea mays L. cv. ‘Pioneer 33G26’); experiment: Test H mixtures of compound 1 with diflufenzopyr; details: foliage spray
Source text: as §1

[5] = tested on: giant foxtail (SETFA, Setaria faberi Herrm.); experiment: Test H mixtures of compound 1 with diflufenzopyr; details: foliage spray
Source text: as §1

[6] = tested on: lambsquarters (CHEAL, Chenopodium album L.); experiment: Test H mixtures of compound 1 with diflufenzopyr; details: foliage spray
Source text: as §1

[7] = tested on: large crabgrass (DIGSA, Digitaria sanguinalis (L.) Scop.); experiment: Test H mixtures of compound 1 with diflufenzopyr; details: foliage spray
Source text: as §1

[8] = tested on: redroot pigweed (AMARE, Amaranthus retroflexus L.); experiment: Test H mixtures of compound 1 with diflufenzopyr; details: foliage spray
Source text: as §1

[9] = tested on: scarlet (red) morningglory (IPOCO, Ipomoea coccinea L.); experiment: Test H mixtures of compound 1 with diflufenzopyr; details: foliage spray
Source text: as §1

[10] = tested on: velvetleaf (ABUTH, Abutilon theophrasti Medik.); experiment: Test H mixtures of compound 1 with diflufenzopyr; details: foliage spray
Source text: as §1

`CCOC(=O)c1nc(C2CC2)nc(N)c1Br` [Compound 1, ethyl 6-amino-5-bromo-2-cyclopropyl-4-pyrimidinecarboxylate] was tested, and the “Plant response rating (0 to 100 scale)” value ([1]; Postemergence, 31 g ai/ha) was 0, the “Plant response rating (0 to 100 scale)” value ([1]; Postemergence, 62 g ai/ha) was 0 and the “Plant response rating (0 to 100 scale)” value ([1]; Postemergence, 125 g ai/ha) was 15. For the same compound, the “Plant response rating (0 to 100 scale)” value ([1]; Postemergence, 250 g ai/ha) was 75, the “Plant response rating (0 to 100 scale)” value ([1]; Postemergence, 500 g ai/ha) was 60 and the “Plant response rating (0 to 100 scale)” value ([1]; Preemergence, 31 g ai/ha) was 10. For the same compound, the “Plant response rating (0 to 100 scale)” value ([1]; Preemergence, 62 g ai/ha) was 35, the “Plant response rating (0 to 100 scale)” value ([1]; Preemergence, 125 g ai/ha) was 45 and the “Plant response rating (0 to 100 scale)” value ([1]; Preemergence, 250 g ai/ha) was 70. The “Plant response rating (0 to 100 scale)” value ([1]; Preemergence, 500 g ai/ha) was 95, the “Obsd. observed effect (0 to 100 scale)” value ([2]; Cmpd 1 31 g a.i./ha) was 25 and the “Obsd. observed effect (0 to 100 scale)” value ([2]; Cmpd 1 62 g a.i./ha) was 42. The “Obsd. observed effect (0 to 100 scale)” value ([2]; Cmpd 1 125 g a.i./ha) was 90, the “Obsd. observed effect (0 to 100 scale)” value ([3]; Cmpd 1 31 g a.i./ha) was 87 and the “Obsd. observed effect (0 to 100 scale)” value ([3]; Cmpd 1 62 g a.i./ha) was 98. The “Obsd. observed effect (0 to 100 scale)” value ([3]; Cmpd 1 125 g a.i./ha) was 97, the “Obsd. observed effect (0 to 100 scale)” value ([4]; Cmpd 1 31 g a.i./ha) was 2 and the “Obsd. observed effect (0 to 100 scale)” value ([4]; Cmpd 1 62 g a.i./ha) was 5. The “Obsd. observed effect (0 to 100 scale)” value ([4]; Cmpd 1 125 g a.i./ha) was 22, the “Obsd. observed effect (0 to 100 scale)” value ([5]; Cmpd 1 31 g a.i./ha) was 2 and the “Obsd. observed effect (0 to 100 scale)” value ([5]; Cmpd 1 62 g a.i./ha) was 4. The “Obsd. observed effect (0 to 100 scale)” value ([5]; Cmpd 1 125 g a.i./ha) was 65, the “Obsd. observed effect (0 to 100 scale)” value ([6]; Cmpd 1 31 g a.i./ha) was 98 and the “Obsd. observed effect (0 to 100 scale)” value ([6]; Cmpd 1 62 g a.i./ha) was 100. The “Obsd. observed effect (0 to 100 scale)” value ([6]; Cmpd 1 125 g a.i./ha) was 100, the “Obsd. observed effect (0 to 100 scale)” value ([7]; Cmpd 1 31 g a.i./ha) was 7 and the “Obsd. observed effect (0 to 100 scale)” value ([7]; Cmpd 1 62 g a.i./ha) was 37. The “Obsd. observed effect (0 to 100 scale)” value ([7]; Cmpd 1 125 g a.i./ha) was 81, the “Obsd. observed effect (0 to 100 scale)” value ([8]; Cmpd 1 31 g a.i./ha) was 91 and the “Obsd. observed effect (0 to 100 scale)” value ([8]; Cmpd 1 62 g a.i./ha) was 97. The “Obsd. observed effect (0 to 100 scale)” value ([8]; Cmpd 1 125 g a.i./ha) was 100, the “Obsd. observed effect (0 to 100 scale)” value ([9]; Cmpd 1 31 g a.i./ha) was 92 and the “Obsd. observed effect (0 to 100 scale)” value ([9]; Cmpd 1 62 g a.i./ha) was 97. The “Obsd. observed effect (0 to 100 scale)” value ([9]; Cmpd 1 125 g a.i./ha) was 100, the “Obsd. observed effect (0 to 100 scale)” value ([10]; Cmpd 1 31 g a.i./ha) was 14 and the “Obsd. observed effect (0 to 100 scale)” value ([10]; Cmpd 1 62 g a.i./ha) was 26. For the same compound, the “Obsd. observed effect (0 to 100 scale)” value ([10]; Cmpd 1 125 g a.i./ha) was 93.
